Reference: US12528786B2, “Plasma kallikrein inhibitors” (Merck Sharp & Dohme LLC, priority 2020, dated 2026)

Target: T1, Human plasma kallikrein (Homo sapiens, UniProt P03952)
T1 construct: yields a heavy chain (371 amino acids) and a light chain (248 amino acids); purchased Enzyme Research Laboratories
Assay: Kallikrein Assay (fluorogenic substrate hydrolysis, AFC release)
Assay type: biochemical
Settings: purified Human plasma kallikrein 0.5 nM; substrate Acetyl-K—P—R-AFC 100 mM; 50 mM HEPES pH 7.4
Protocol: The effectiveness of a compound of the present invention as an inhibitor of Kallikrein can be determined using a relevant purified serine protease, and an appropriate synthetic substrate. The rate of hydrolysis of the chromogenic or fluorogenic substrate by the relevant serine protease was measured both in the absence and presence of compounds of the present invention. Assays were conducted at room temperature or at 37° C. […] A decrease in the rate of fluorescence change in the presence of inhibitor is indicative of enzyme inhibition. Such methods are known to one skilled in the art. The results of this assay are expressed as the half-maximal inhibitory concentrations (IC50), or the inhibitory constant, Ki.
Kallikrein determinations were made in 50 mM HEPES buffer at pH 7.4 containing 150 mM NaCl, 5 mM CaCl2), and 0.1% PEG 8000 (polyethylene glycol; Fisher Scientific). Determinations were made using purified Human plasma kallikrein at a final concentration of 0.5 nM (Enzyme Research Laboratories) and the synthetic substrate, Acetyl-K—P—R-AFC (Sigma #C6608) at a concentration of […].
Activity assays were performed by diluting a stock solution of substrate at least tenfold to a final concentration ≤0.2 Km into a solution containing enzyme or enzyme equilibrated with inhibitor. Times required to achieve equilibration between enzyme and inhibitor were determined in control experiments. The reactions were performed under linear progress curve conditions and fluorescence increase measured at 405 Ex/510 Em nm. Values were converted to percent inhibition of the control reaction (after subtracting 100% Inhibition value). IC50 was determined by inflection point from a four parameter logistic curve fit. Ki was calculated using the Cheng Prusoff equation, Ki=IC50/(1+([S]/Km)).

T1 sequence (P03952 391-638 limits assumed): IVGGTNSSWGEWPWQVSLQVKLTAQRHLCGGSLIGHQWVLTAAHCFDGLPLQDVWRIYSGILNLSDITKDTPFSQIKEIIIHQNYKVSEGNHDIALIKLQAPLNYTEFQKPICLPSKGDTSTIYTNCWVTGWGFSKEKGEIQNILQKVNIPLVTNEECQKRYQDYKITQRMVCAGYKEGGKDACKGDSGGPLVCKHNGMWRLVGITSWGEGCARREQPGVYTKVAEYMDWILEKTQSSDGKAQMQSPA
T1 sequence (P03952 20-390 partner limits assumed): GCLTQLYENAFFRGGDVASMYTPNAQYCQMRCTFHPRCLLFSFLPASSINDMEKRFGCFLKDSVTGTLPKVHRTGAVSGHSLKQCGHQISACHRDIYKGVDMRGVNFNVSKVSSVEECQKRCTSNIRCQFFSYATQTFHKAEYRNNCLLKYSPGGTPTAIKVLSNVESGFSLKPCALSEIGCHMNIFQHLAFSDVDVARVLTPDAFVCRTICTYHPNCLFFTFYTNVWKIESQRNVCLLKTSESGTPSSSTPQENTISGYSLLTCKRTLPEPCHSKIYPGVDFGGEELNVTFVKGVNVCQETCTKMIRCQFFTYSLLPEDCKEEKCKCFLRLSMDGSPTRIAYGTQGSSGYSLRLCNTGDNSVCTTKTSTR

Row | Structure (SMILES) | IC50 [nM]
1 | Cc1c([C@H](C)n2cc(C(=O)N[C@H]3C[C@@](C)(c4cc(Cl)ccc4C#N)C3)nn2)cnc(N2C[C@H]3C[C@H]3C2=O)c1C [Example 141, N-((cis)-3-(5-chloro-2-cyanophenyl)-3-methylcyclobutyl)-1-((S)-1-(4,5-dimethyl-6-((1R,5S)-2-oxo-3-azabicyclo[3.1.0]hexan-3-yl)pyridin-3-yl)ethyl)-1H-1,2,3-triazole-4-carboxamide] | 0.2
2 | Cc1c(C(C)n2cc(C(=O)NC3CC(c4cccc(Cl)c4)C3O)nn2)nnc(N2C[C@H]3C[C@H]3C2=O)c1C (single isomer, unassigned) [Example 130, N-((1S,2S,3S or 1R,2R,3R))-3-(3-chlorophenyl)-2-hydroxycyclobutyl)-1-((R or S)-1-(4,5-dimethyl-6-((1R,5S)-2-oxo-3-azabicyclo[3.1.0]hexan-3-yl)pyridazin-3-yl)ethyl)-1H-1,2,3-triazole-4-carboxamide] | 8.5
3 | Cc1ccc(C#N)c([C@H]2C[C@@H](NC(=O)c3cn(C(C)c4cnc(N5C[C@H]6C[C@H]6C5=O)c(C)c4C)nn3)C2)n1 (single isomer, unassigned) [Example 98, N-((cis)-3-(3-cyano-6-methylpyridin-2-yl)cyclobutyl)-1-((R or S)-1-(4,5-dimethyl-6-((1R,5S)-2-oxo-3-azabicyclo[3.1.0]hexan-3-yl)pyridin-3-yl)ethyl)-1H-1,2,3-triazole-4-carboxamide] | 27.5
4 | Cc1c(C(C)n2cc(C(=O)N[C@H]3C[C@@H](c4cc(Cl)ccc4C#N)C3)cn2)nnc(N2C[C@H]3C[C@H]3C2=O)c1C (single isomer, unassigned) [Example 41, N-((cis)-3-(5-chloro-2-cyanophenyl)cyclobutyl)-1-((R or S)-1-(4,5-dimethyl-6-((1R,5S)-2-oxo-3-azabicyclo[3.1.0]hexan-3-yl)pyridazin-3-yl)ethyl)-1H-pyrazole-4-carboxamide] | 15.8
5 | Cc1cc(N2C[C@H]3C[C@H]3C2=O)ncc1C(C)n1cc(C(=O)N[C@H]2C[C@@](C)(c3cc(Cl)ccc3C#N)C2)cn1 (single isomer, unassigned) [Example 10, N-((cis)-3-(5-chloro-2-cyanophenyl)-3-methylcyclobutyl)-1-((S or R)-1-(4-methyl-6-((1R,5S)-2-oxo-3-azabicyclo[3.1.0]hexan-3-yl)pyridin-3-yl)ethyl)-1H-pyrazole-4-carboxamide] | 3.6
6 | Cc1ccc(C#N)c([C@H]2C[C@@H](NC(=O)c3cn(C(C)c4cnc(N5C[C@H]6C[C@H]6C5=O)c(C)c4C)nn3)C2)n1 (single isomer, unassigned) [Example 99, N-((cis)-3-(3-cyano-6-methylpyridin-2-yl)cyclobutyl)-1-((S or R)-1-(4,5-dimethyl-6-((1R,5S)-2-oxo-3-azabicyclo[3.1.0]hexan-3-yl)pyridin-3-yl)ethyl)-1H-1,2,3-triazole-4-carboxamide] | 0.6
7 | N#Cc1ccc(Cl)cc1[C@H]1C[C@@H](NC(=O)c2cn(Cc3cnc(N4C[C@H]5C[C@H]5C4=O)nc3)nn2)C1 [Example 79, N-((cis)-3-(5-chloro-2-cyanophenyl)cyclobutyl)-1-((2-((1R,5S)-2-oxo-3-azabicyclo[3.1.0]hexan-3-yl)pyrimidin-5-yl)methyl)-1H-1,2,3-triazole-4-carboxamide] | 16.1
8 | Cc1nn(C(C)c2cnc(N3C[C@H]4C[C@H]4C3=O)nc2)cc1C(=O)N[C@H]1C[C@@H](c2cc(Cl)ccc2C#N)C1 (single isomer, unassigned) [Example 15, N-((cis)-3-(5-chloro-2-cyanophenyl)cyclobutyl)-3-methyl-1-((R or S)-1-(2-((1R,5S)-2-oxo-3-azabicyclo[3.1.0]hexan-3-yl)pyrimidin-5-yl)ethyl)-1H-pyrazole-4-carboxamide] | 2.6
9 | Cc1cc(N2C[C@H]3C[C@H]3C2=O)ncc1[C@H](C)n1cc(C(=O)N[C@H]2C[C@@H](c3cc(Cl)ccc3-n3cc(F)cn3)C2)nn1 [Example 149, N-((cis)-3-(5-chloro-2-(4-fluoro-1H-pyrazol-1-yl)phenyl)cyclobutyl)-1-((S)-1-(4-methyl-6-((1R,5S)-2-oxo-3-azabicyclo[3.1.0]hexan-3-yl)pyridin-3-yl)ethyl)-1H-1,2,3-triazole-4-carboxamide] | 5
10 | COc1c(N2C[C@H]3C[C@H]3C2=O)ncc(C(C)n2cc(C(=O)N[C@H]3C[C@@H](c4cc(Cl)ccc4C#N)C3)nn2)c1C (single isomer, unassigned) [Example 111, N-((cis)-3-(5-chloro-2-cyanophenyl)cyclobutyl)-1-((R or S)-1-(5-methoxy-4-methyl-6-((1R,5S)-2-oxo-3-azabicyclo[3.1.0]hexan-3-yl)pyridin-3-yl)ethyl)-1H-1,2,3-triazole-4-carboxamide] | 0.3
11 | CC(c1ncc(N2C[C@H]3C[C@H]3C2=O)cc1F)n1cc(C(=O)N[C@H]2C[C@@H](c3cc(Cl)ccc3C#N)C2)nn1 (single isomer, unassigned) [Example 93, N-((cis)-3-(5-chloro-2-cyanophenyl)cyclobutyl)-1-((S or R)-1-(3-fluoro-5-((1R,5S)-2-oxo-3-azabicyclo[3.1.0]hexan-3-yl)pyridin-2-yl)ethyl)-1H-1,2,3-triazole-4-carboxamide] | 4.3
12 | CC(c1cnc(N2C[C@H]3C[C@H]3C2=O)c(F)c1)n1cc(C(=O)N[C@H]2C[C@@H](c3cc(Cl)ccc3C#N)C2)cn1 (single isomer, unassigned) [Example 22, N-((cis)-3-(5-chloro-2-cyanophenyl)cyclobutyl)-1-((S or R)-1-(5-fluoro-6-((1R,5S)-2-oxo-3-azabicyclo[3.1.0]hexan-3-yl)pyridin-3-yl)ethyl)-1H-pyrazole-4-carboxamide] | 1.5

The next lines start with the values.

Row | IC50 [nM] | Structure (SMILES)
13 | 0.2 | COc1c(N2C[C@H]3C[C@H]3C2=O)ncc(C(C)n2cc(C(=O)N[C@H]3C[C@@H](c4cc(Cl)ccc4C#N)C3)cn2)c1C (single isomer, unassigned) [Example 44, N-((cis)-3-(5-chloro-2-cyanophenyl)cyclobutyl)-1-((S or R)-1-(5-methoxy-4-methyl-6-((1R,5S)-2-oxo-3-azabicyclo[3.1.0]hexan-3-yl)pyridin-3-yl)ethyl)-1H-pyrazole-4-carboxamide]
14 | 0.2 | Cc1c(C(C)n2cc(C(=O)N[C@H]3C[C@@H](c4cc(Cl)ccc4C#N)C3)cn2)cnc(N2C[C@H]3C[C@H]3C2=O)c1F (single isomer, unassigned) [Example 28, N-((cis)-3-(5-chloro-2-cyanophenyl)cyclobutyl)-1-((R or S)-1-(5-fluoro-4-methyl-6-((1R,5S)-2-oxo-3-azabicyclo[3.1.0]hexan-3-yl)pyridin-3-yl)ethyl)-1H-pyrazole-4-carboxamide]
15 | 1.5 | Cc1cc([C@H](C)n2cc(C(=O)N[C@H]3C[C@@H](c4cc(Cl)ccc4C#N)C3)nn2)cnc1N1C[C@H]2C[C@H]2C1=O (single isomer, unassigned) [Example 56]
16 | 1.2 | Cc1c(N2C[C@H]3C[C@H]3C2=O)ncc(C(C)n2cc(C(=O)NC3CC(c4cc(Cl)ccc4C#N)C3)cn2)c1F (single isomer, unassigned) [Example 166]
17 | 0.2 | Cc1c(C(C)n2cc(C(=O)N[C@H]3C[C@@H](c4cc(Cl)ccc4C#N)C3)nn2)cnc(N2C[C@H]3C[C@H]3C2=O)c1F (single isomer, unassigned) [Example 96, N-((cis)-3-(5-chloro-2-cyanophenyl)cyclobutyl)-1-((R or S)-1-(5-fluoro-4-methyl-6-((1R,5S)-2-oxo-3-azabicyclo[3.1.0]hexan-3-yl)pyridin-3-yl)ethyl)-1H-1,2,3-triazole-4-carboxamide]
18 | 1.5 | Cc1cc(N2C[C@H]3C[C@H]3C2=O)cnc1C(C)n1cc(C(=O)N[C@H]2C[C@@H](c3cc(Cl)ccc3C#N)C2)nn1 (single isomer, unassigned) [Example 91, N-((cis)-3-(5-chloro-2-cyanophenyl)cyclobutyl)-1-((S or R)-1-(3-methyl-5-((1R,5S)-2-oxo-3-azabicyclo[3.1.0]hexan-3-yl)pyridin-2-yl)ethyl)-1H-1,2,3-triazole-4-carboxamide]
19 | 26.9 | Cc1cc(N2C[C@H]3C[C@H]3C2=O)ncc1[C@@H](C)c1cc(C(=O)N[C@H]2C[C@@H](c3cc(Cl)ccc3C#N)C2)n(C)n1 [Example 174, N-((cis)-3-(5-chloro-2-cyanophenyl)cyclobutyl)-1-methyl-3-((R)-1-(4-methyl-6-((1R,5S)-2-oxo-3-azabicyclo[3.1.0]hexan-3-yl)pyridin-3-yl)ethyl)-1H-pyrazole-5-carboxamide]
20 | 0.6 | [2H][C@]1(c2cc(Cl)ccc2C#N)C[C@@H](NC(=O)c2cn([C@@H](C)c3cnc(N4C[C@H]5C[C@H]5C4=O)cc3C)nn2)C1 [Example 147, N-((cis)-3-(5-chloro-2-cyanophenyl)cyclobutyl-3-d)-1-((S)-1-(4-methyl-6-((1R,5S)-2-oxo-3-azabicyclo[3.1.0]hexan-3-yl)pyridin-3-yl)ethyl)-1H-1,2,3-triazole-4-carboxamide]
